Experimental data reported in article PMC5418314, “First-in-human phase I study of SOR-C13, a TRPV6 calcium channel inhibitor, in patients with advanced solid tumors” (Investigational New Drugs, 2017).
Where two headings read alike, the source gives them in different places. Ends that are not written are not given here.

Experiments:
[1] = Phase I plasma pharmacokinetics; assay type: in vivo, human; conditions: human, plasma, iv, 90-min IV infusion, plasma LC-MS
Protocol: Blood samples were taken on Days 1, 3, 8 and 10 of Cycle 1 to assess the pharmacokinetic (PK) profile of SOR-C13 at the various doses used. Plasma samples for the IV 20 min infusion were taken at pre-infusion, 5, 15 min after the start of infusion and post-infusion at 2, 5, 10 and 30 min and 1, 4 h. Plasma samples for SOR-C13 analysis for the 90 min infusion were taken pre-infusion, at 5, 15 and 45 min after the start of infusion, and at 2, 5, 10 and 30 min post-infusion. Since the infusion for the majority of patients, and further studies will be IV 90 min only PK data for this infusion time are presented. Validated liquid chromatography-mass spectrometry analysis provided the plasma concentration/time data.

[2] = biological target: hERG (Homo sapiens, UniProt Q12809); assay: hERG channel activity; assay type: biochemical
[3] = half-life in the blood compartment, dog; assay type: in vivo
[4] = half-life in the blood compartment, rat; assay type: in vivo
[5] = peptide degradation in human plasma; assay type: in vitro ADME
[6] = Phase I ECG assessment; assay type: in vivo, human
From the text: A Safety Monitoring Committee (SMC) oversaw the safety aspects of the study. Safety endpoints included: incidence of adverse events (AEs) and serious AEs (SAEs), withdrawals due to AEs, Dose Limiting Toxicities (DLTs), infusion reactions, deaths on study, vital signs, electrocardiogram (ECGs), clinical laboratory parameters and changes to the treatment regimen (dose delay, dose decrease) due to AEs. The National Cancer Institute (NCI) Common Terminology Criteria for Adverse Events (CTCAE) Version 4.0 was used to grade the severity of AEs.

Sequence of hERG (Q12809 whole entry): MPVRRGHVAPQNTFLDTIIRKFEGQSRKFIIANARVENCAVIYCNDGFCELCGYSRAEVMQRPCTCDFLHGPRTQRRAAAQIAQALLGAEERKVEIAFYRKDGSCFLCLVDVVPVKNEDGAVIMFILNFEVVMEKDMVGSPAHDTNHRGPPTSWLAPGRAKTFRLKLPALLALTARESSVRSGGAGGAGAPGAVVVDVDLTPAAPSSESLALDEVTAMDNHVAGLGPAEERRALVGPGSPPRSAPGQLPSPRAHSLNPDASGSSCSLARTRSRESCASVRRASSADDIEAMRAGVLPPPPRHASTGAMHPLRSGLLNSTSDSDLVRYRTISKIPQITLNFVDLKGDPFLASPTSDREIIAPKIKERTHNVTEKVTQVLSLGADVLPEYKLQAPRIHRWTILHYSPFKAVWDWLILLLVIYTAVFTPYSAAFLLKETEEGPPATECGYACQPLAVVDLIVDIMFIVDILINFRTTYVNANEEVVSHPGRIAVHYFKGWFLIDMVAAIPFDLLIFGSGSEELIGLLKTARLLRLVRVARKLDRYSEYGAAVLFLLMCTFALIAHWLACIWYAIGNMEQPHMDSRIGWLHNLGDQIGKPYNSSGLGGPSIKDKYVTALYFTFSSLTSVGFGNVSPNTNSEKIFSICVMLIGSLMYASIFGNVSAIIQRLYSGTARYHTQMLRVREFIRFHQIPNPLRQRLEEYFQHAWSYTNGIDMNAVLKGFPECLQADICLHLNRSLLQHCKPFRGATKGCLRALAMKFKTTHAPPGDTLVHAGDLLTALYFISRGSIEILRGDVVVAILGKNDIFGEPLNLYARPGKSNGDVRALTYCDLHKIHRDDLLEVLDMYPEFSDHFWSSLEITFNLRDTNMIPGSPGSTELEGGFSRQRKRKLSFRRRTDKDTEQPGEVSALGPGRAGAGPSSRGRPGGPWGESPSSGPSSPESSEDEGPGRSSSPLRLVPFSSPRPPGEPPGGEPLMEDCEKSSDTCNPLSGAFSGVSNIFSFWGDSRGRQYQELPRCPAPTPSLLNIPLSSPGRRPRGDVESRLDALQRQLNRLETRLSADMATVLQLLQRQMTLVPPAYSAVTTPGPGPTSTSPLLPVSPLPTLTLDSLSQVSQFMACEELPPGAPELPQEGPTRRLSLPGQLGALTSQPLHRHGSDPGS

KEFLHPSKVDLPR [SOR-C13]
AUC(0-t) ([1]; 4.13 mg/kg, Cohort 5: 4.13 mg/kg, N = 3, Cycle 1 Day 1, read-out: AUCtau, Mean (SD)): 78.4 ng·h/mL
AUC(0-t) ([1]; 4.13 mg/kg, Cohort 5: 4.13 mg/kg, N = 3, Cycle 1 Day 1, read-out: AUCtau, Median): 23.4 ng·h/mL
Cmax ([1]; 4.13 mg/kg, Cohort 5: 4.13 mg/kg, N = 3, Cycle 1 Day 1, read-out: Peak plasma concentration, Mean (SD)): 139 ng/mL
Cmax ([1]; 4.13 mg/kg, Cohort 5: 4.13 mg/kg, N = 3, Cycle 1 Day 1, read-out: Peak plasma concentration, Median): 42 ng/mL
Tmax ([1]; 4.13 mg/kg, Cohort 5: 4.13 mg/kg, N = 3, Cycle 1 Day 1, read-out: Time to peak plasma concentration, Mean (SD)): 25 min
Tmax ([1]; 4.13 mg/kg, Cohort 5: 4.13 mg/kg, N = 3, Cycle 1 Day 1, read-out: Time to peak plasma concentration, Median): 15 min
AUC(0-t) ([1]; 4.13 mg/kg, Cohort 5: 4.13 mg/kg, N = 3, Cycle 1 Day 3, read-out: AUCtau, Mean (SD)): 373 ng·h/mL
AUC(0-t) ([1]; 4.13 mg/kg, Cohort 5: 4.13 mg/kg, N = 3, Cycle 1 Day 3, read-out: AUCtau, Median): 403 ng·h/mL
Cmax ([1]; 4.13 mg/kg, Cohort 5: 4.13 mg/kg, N = 3, Cycle 1 Day 3, read-out: Peak plasma concentration, Mean (SD)): 369 ng/mL
Cmax ([1]; 4.13 mg/kg, Cohort 5: 4.13 mg/kg, N = 3, Cycle 1 Day 3, read-out: Peak plasma concentration, Median): 403 ng/mL
Tmax ([1]; 4.13 mg/kg, Cohort 5: 4.13 mg/kg, N = 3, Cycle 1 Day 3, read-out: Time to peak plasma concentration, Mean (SD)): 35 min
Tmax ([1]; 4.13 mg/kg, Cohort 5: 4.13 mg/kg, N = 3, Cycle 1 Day 3, read-out: Time to peak plasma concentration, Median): 45 min
AUC(0-t) ([1]; 4.13 mg/kg, Cohort 5: 4.13 mg/kg, N = 3, Cycle 1 Day 8, read-out: AUCtau, Mean (SD)): 197 ng·h/mL
AUC(0-t) ([1]; 4.13 mg/kg, Cohort 5: 4.13 mg/kg, N = 3, Cycle 1 Day 8, read-out: AUCtau, Median): 245 ng·h/mL
Cmax ([1]; 4.13 mg/kg, Cohort 5: 4.13 mg/kg, N = 3, Cycle 1 Day 8, read-out: Peak plasma concentration, Mean (SD)): 212 ng/mL
Cmax ([1]; 4.13 mg/kg, Cohort 5: 4.13 mg/kg, N = 3, Cycle 1 Day 8, read-out: Peak plasma concentration, Median): 264 ng/mL
Tmax ([1]; 4.13 mg/kg, Cohort 5: 4.13 mg/kg, N = 3, Cycle 1 Day 8, read-out: Time to peak plasma concentration, Mean (SD)): 18.2 min
Tmax ([1]; 4.13 mg/kg, Cohort 5: 4.13 mg/kg, N = 3, Cycle 1 Day 8, read-out: Time to peak plasma concentration, Median): 4.8 min
AUC(0-t) ([1]; 4.13 mg/kg, Cohort 5: 4.13 mg/kg, N = 3, Cycle 1 Day 10, read-out: AUCtau, Mean (SD)): 273 ng·h/mL
AUC(0-t) ([1]; 4.13 mg/kg, Cohort 5: 4.13 mg/kg, N = 3, Cycle 1 Day 10, read-out: AUCtau, Median): 324 ng·h/mL
Cmax ([1]; 4.13 mg/kg, Cohort 5: 4.13 mg/kg, N = 3, Cycle 1 Day 10, read-out: Peak plasma concentration, Mean (SD)): 280 ng/mL
Cmax ([1]; 4.13 mg/kg, Cohort 5: 4.13 mg/kg, N = 3, Cycle 1 Day 10, read-out: Peak plasma concentration, Median): 295 ng/mL
Tmax ([1]; 4.13 mg/kg, Cohort 5: 4.13 mg/kg, N = 3, Cycle 1 Day 10, read-out: Time to peak plasma concentration, Mean (SD)): 21.6 min
AUC(0-t) ([1]; 6.2 mg/kg, Cohort 6: 6.2 mg/kg, N = 6, Cycle 1 Day 1, read-out: AUCtau, Mean (SD)): 1130 ng·h/mL
AUC(0-t) ([1]; 6.2 mg/kg, Cohort 6: 6.2 mg/kg, N = 6, Cycle 1 Day 1, read-out: AUCtau, Median): 570 ng·h/mL
Cmax ([1]; 6.2 mg/kg, Cohort 6: 6.2 mg/kg, N = 6, Cycle 1 Day 1, read-out: Peak plasma concentration, Mean (SD)): 1150 ng/mL
Cmax ([1]; 6.2 mg/kg, Cohort 6: 6.2 mg/kg, N = 6, Cycle 1 Day 1, read-out: Peak plasma concentration, Median): 682 ng/mL
Tmax ([1]; 6.2 mg/kg, Cohort 6: 6.2 mg/kg, N = 6, Cycle 1 Day 1, read-out: Time to peak plasma concentration, Mean (SD)): 56.6 min
AUC(0-t) ([1]; 6.2 mg/kg, Cohort 6: 6.2 mg/kg, N = 6, Cycle 1 Day 3, read-out: AUCtau, Mean (SD)): 1100 ng·h/mL
AUC(0-t) ([1]; 6.2 mg/kg, Cohort 6: 6.2 mg/kg, N = 6, Cycle 1 Day 3, read-out: AUCtau, Median): 904 ng·h/mL
Cmax ([1]; 6.2 mg/kg, Cohort 6: 6.2 mg/kg, N = 6, Cycle 1 Day 3, read-out: Peak plasma concentration, Mean (SD)): 1020 ng/mL
Cmax ([1]; 6.2 mg/kg, Cohort 6: 6.2 mg/kg, N = 6, Cycle 1 Day 3, read-out: Peak plasma concentration, Median): 843 ng/mL
Tmax ([1]; 6.2 mg/kg, Cohort 6: 6.2 mg/kg, N = 6, Cycle 1 Day 3, read-out: Time to peak plasma concentration, Mean (SD)): 27.7 min
Tmax ([1]; 6.2 mg/kg, Cohort 6: 6.2 mg/kg, N = 6, Cycle 1 Day 3, read-out: Time to peak plasma concentration, Median): 9.9 min
AUC(0-t) ([1]; 6.2 mg/kg, Cohort 6: 6.2 mg/kg, N = 6, Cycle 1 Day 8, read-out: AUCtau, Mean (SD)): 1340 ng·h/mL
AUC(0-t) ([1]; 6.2 mg/kg, Cohort 6: 6.2 mg/kg, N = 6, Cycle 1 Day 8, read-out: AUCtau, Median): 843 ng·h/mL
Cmax ([1]; 6.2 mg/kg, Cohort 6: 6.2 mg/kg, N = 6, Cycle 1 Day 8, read-out: Peak plasma concentration, Mean (SD)): 1440 ng/mL
Cmax ([1]; 6.2 mg/kg, Cohort 6: 6.2 mg/kg, N = 6, Cycle 1 Day 8, read-out: Peak plasma concentration, Median): 826 ng/mL
Tmax ([1]; 6.2 mg/kg, Cohort 6: 6.2 mg/kg, N = 6, Cycle 1 Day 8, read-out: Time to peak plasma concentration, Mean (SD)): 45.8 min
AUC(0-t) ([1]; 6.2 mg/kg, Cohort 6: 6.2 mg/kg, N = 6, Cycle 1 Day 10, read-out: AUCtau, Mean (SD)): 1430 ng·h/mL
AUC(0-t) ([1]; 6.2 mg/kg, Cohort 6: 6.2 mg/kg, N = 6, Cycle 1 Day 10, read-out: AUCtau, Median): 830 ng·h/mL
Cmax ([1]; 6.2 mg/kg, Cohort 6: 6.2 mg/kg, N = 6, Cycle 1 Day 10, read-out: Peak plasma concentration, Mean (SD)): 1380 ng/mL
Cmax ([1]; 6.2 mg/kg, Cohort 6: 6.2 mg/kg, N = 6, Cycle 1 Day 10, read-out: Peak plasma concentration, Median): 794 ng/mL
Tmax ([1]; 6.2 mg/kg, Cohort 6: 6.2 mg/kg, N = 6, Cycle 1 Day 10, read-out: Time to peak plasma concentration, Mean (SD)): 36.1 min
Tmax ([1]; 6.2 mg/kg, Cohort 6: 6.2 mg/kg, N = 6, Cycle 1 Day 10, read-out: Time to peak plasma concentration, Median): 30 min
modulation of channel activity [2]: no modulation of channel activity
half-life in the blood compartment [3]: < 5 min
half-life in the blood compartment [4]: < 5 min
peptide degradation half-life [5]: about 1 h
mean changes in QTc intervals compared to pre-infusion values ([6]; 90-min infusions (N = 18), Cycle 1): −4.2 to +12.7 msec
ECG abnormalities ([6]; during the study): No clinically significant ECG abnormalities
QT or QTc prolongations above 500 msec ([6]; during the study): no QT or QTc prolongations above 500 msec
QTc prolongation >60 msec compared to baseline or same-day pre-dose values ([6]; during the study): no patient experienced QTc prolongation >60 msec
